Reference: ChEMBL document CHEMBL5096228, “Targeting Vancomycin-Resistant Enterococci (VRE) Infections and Van Operon-Mediated Drug Resistance Using Dimeric Cholic Acid-Peptide Conjugates” (J Med Chem, 2022)
Values after ≈ are worked out from the molar mass of the structure shown. Positions of bridges follow the written chain, without caps; N, C: chain ends. Non-standard residues stand in square brackets, D forms with d. Residues, ends and D or L forms follow the SMILES beside them. *: point of attachment. X1 = CC[C@H](C)CCCCC(=O)*; Dab = NCC[C@H](N)C(=O)O

How the values were obtained:
Staphylococcus aureus [1] = experiment: Antimicrobial activity against Staphylococcus aureus ATCC 25923 assessed as growth inhibition after 14 to 16 hrs by CLSI based broth dilution method; format: functional; conditions: time 14-16 hrs
Enterococcus faecium [2] = experiment: Antimicrobial activity against Enterococcus faecium assessed as growth inhibition after 14 to 16 hrs by CLSI based broth dilution method; format: functional; conditions: time 14-16 hrs
Staphylococcus aureus [3] = experiment: Antimicrobial activity against methicillin-resistant Staphylococcus aureus ATCC 33591 assessed as growth inhibition after 14 to 16 hrs by CLSI based broth dilution method; format: functional; conditions: time 14-16 hrs
Enterococcus faecium [4] = experiment: Antimicrobial activity against Vancomycin-resistant Enterococcus faecium ATCC 51559 assessed as growth inhibition after 14 to 16 hrs by CLSI based broth dilution method; format: functional; conditions: time 14-16 hrs
[5] = Cytotoxicity against mouse LLC cells assessed as reduction in cell viability; format: toxicity, cell-based; conditions: LLC (3LL) cells
[6] = Hemolytic activity in human RBC at 50 ug/ml; format: toxicity, cell-based, Erythrocyte; conditions: red blood cells (erythrocytes), at 50 µg/mL, read-out: Activity

Row | Compound | MIC99 (Staphylococcus aureus [1]) | MIC99 (Enterococcus faecium [2]) | MIC99 (Staphylococcus aureus [3]) | MIC99 (Enterococcus faecium [4]) | IC50 [5] | hemolysis at 50 ug/ml [6]
1 | CC(C)C(N)C(=O)NCC(=O)O[C@@H]1CC[C@@]2(C)[C@@H](C1)C[C@@H](OC(=O)CNC(=O)C(N)C(C)C)[C@@H]1[C@@H]2C[C@H](OC(=O)CNC(=O)C(N)C(C)C)[C@]2(C)[C@@H]([C@H](C)CCC(=O)NCc3cn(CCCCCCn4cc(CNC(=O)CC[C@@H](C)[C@H]5CC[C@H]6[C@@H]7[C@H](OC(=O)CNC(=O)C(N)C(C)C)C[C@@H]8C[C@H](OC(=O)CNC(=O)C(N)C(C)C)CC[C@]8(C)[C@H]7C[C@H](OC(=O)CNC(=O)C(N)C(C)C)[C@]56C)nn4)nn3)CC[C@@H]12.Cl.Cl.Cl.Cl.Cl.Cl (some centres not stated) | 128 µg/mL | 16 µg/mL | 32 µg/mL | 4 µg/mL | 69 µg/mL | 57%
2 | NC[C@@H]1O[C@H](O[C@H]2[C@@H](O)[C@H](O[C@@H]3[C@@H](O)[C@H](N)C[C@H](N)[C@H]3O[C@H]3O[C@H](CN)[C@@H](O)[C@H](O)[C@H]3N)O[C@@H]2CO)[C@H](N)[C@@H](O)[C@@H]1O [FRAMYCETIN] | 16 µg/mL (≈ 26 µM) | 16 µg/mL (≈ 26 µM) | > 128 µg/mL | > 128 µg/mL | > 1000 µM | –
3 | C[C@H](CCC(=O)NCc1cn(CCCCCCn2cc(CNC(=O)CC[C@@H](C)[C@H]3CC[C@H]4[C@@H]5[C@H](OC(=O)CN)C[C@@H]6C[C@H](OC(=O)CN)CC[C@]6(C)[C@H]5C[C@H](OC(=O)CN)[C@]34C)nn2)nn1)[C@H]1CC[C@H]2[C@@H]3[C@H](OC(=O)CN)C[C@@H]4C[C@H](OC(=O)CN)CC[C@]4(C)[C@H]3C[C@H](OC(=O)CN)[C@]12C.Cl.Cl.Cl.Cl.Cl.Cl | 128 µg/mL | 16 µg/mL | 32 µg/mL | 8 µg/mL | 66 µg/mL | 58%
4 | CC(C)C(N)C(=O)NCC(=O)O[C@@H]1CC[C@@]2(C)[C@@H](C1)C[C@@H](OC(=O)CNC(=O)C(N)C(C)C)[C@@H]1[C@@H]2C[C@H](OC(=O)CNC(=O)C(N)C(C)C)[C@]2(C)[C@@H]([C@H](C)CCC(=O)NCc3cn(CCCCn4cc(CNC(=O)CC[C@@H](C)[C@H]5CC[C@H]6[C@@H]7[C@H](OC(=O)CNC(=O)C(N)C(C)C)C[C@@H]8C[C@H](OC(=O)CNC(=O)C(N)C(C)C)CC[C@]8(C)[C@H]7C[C@H](OC(=O)CNC(=O)C(N)C(C)C)[C@]56C)nn4)nn3)CC[C@@H]12.Cl.Cl.Cl.Cl.Cl.Cl (some centres not stated) | 128 µg/mL | 8 µg/mL | 32 µg/mL | 4 µg/mL | 52 µg/mL | 50%
5 | C[C@H](CCC(=O)NCc1cn(CCCCCn2cc(CNC(=O)CC[C@@H](C)[C@H]3CC[C@H]4[C@@H]5[C@H](OC(=O)CN)C[C@@H]6C[C@H](OC(=O)CN)CC[C@]6(C)[C@H]5C[C@H](OC(=O)CN)[C@]34C)nn2)nn1)[C@H]1CC[C@H]2[C@@H]3[C@H](OC(=O)CN)C[C@@H]4C[C@H](OC(=O)CN)CC[C@]4(C)[C@H]3C[C@H](OC(=O)CN)[C@]12C.Cl.Cl.Cl.Cl.Cl.Cl | 128 µg/mL | 32 µg/mL | 64 µg/mL | 16 µg/mL | 153 µg/mL | 10%
6 | CC(C)C(N)C(=O)NCC(=O)O[C@@H]1CC[C@@]2(C)[C@@H](C1)C[C@@H](OC(=O)CNC(=O)C(N)C(C)C)[C@@H]1[C@@H]2C[C@H](OC(=O)CNC(=O)C(N)C(C)C)[C@]2(C)[C@@H]([C@H](C)CCC(=O)NCc3cn(CCCCCn4cc(CNC(=O)CC[C@@H](C)[C@H]5CC[C@H]6[C@@H]7[C@H](OC(=O)CNC(=O)C(N)C(C)C)C[C@@H]8C[C@H](OC(=O)CNC(=O)C(N)C(C)C)CC[C@]8(C)[C@H]7C[C@H](OC(=O)CNC(=O)C(N)C(C)C)[C@]56C)nn4)nn3)CC[C@@H]12.Cl.Cl.Cl.Cl.Cl.Cl (some centres not stated) | 128 µg/mL | 16 µg/mL | 32 µg/mL | 4 µg/mL | 96 µg/mL | 36%
7 | C[C@H](CCC(=O)NCc1cn(CCCn2cc(CNC(=O)CC[C@@H](C)[C@H]3CC[C@H]4[C@@H]5[C@H](OC(=O)CN)C[C@@H]6C[C@H](OC(=O)CN)CC[C@]6(C)[C@H]5C[C@H](OC(=O)CN)[C@]34C)nn2)nn1)[C@H]1CC[C@H]2[C@@H]3[C@H](OC(=O)CN)C[C@@H]4C[C@H](OC(=O)CN)CC[C@]4(C)[C@H]3C[C@H](OC(=O)CN)[C@]12C.Cl.Cl.Cl.Cl.Cl.Cl | 128 µg/mL | 32 µg/mL | 32 µg/mL | 16 µg/mL | 131 µg/mL | 9%
8 | CC(C)C(N)C(=O)NCC(=O)O[C@@H]1CC[C@@]2(C)[C@@H](C1)C[C@@H](OC(=O)CNC(=O)C(N)C(C)C)[C@@H]1[C@@H]2C[C@H](OC(=O)CNC(=O)C(N)C(C)C)[C@]2(C)[C@@H]([C@H](C)CCC(=O)OCc3ccccc3)CC[C@@H]12 (some centres not stated) | 16 µg/mL (≈ 16.5 µM) | 8 µg/mL (≈ 8.27 µM) | 4 µg/mL (≈ 4.14 µM) | 2 µg/mL (≈ 2.07 µM) | 40 µg/mL | 95%
9 | CC[C@H](C)CCCCC(=O)N[C@@H](CCN)C(=O)N[C@H](C(=O)N[C@@H](CCN)C(=O)N[C@H]1CCNC(=O)[C@H]([C@@H](C)O)NC(=O)[C@H](CCN)NC(=O)[C@H](CCN)NC(=O)[C@H](CC(C)C)NC(=O)[C@@H](Cc2ccccc2)NC(=O)[C@H](CCN)NC1=O)[C@@H](C)O (X1-[Dab]T[Dab][Dab][Dab][dF]L[Dab][Dab]T; lactam 4-C) | 128 µg/mL (≈ 106 µM) | > 128 µg/mL | 32 µg/mL (≈ 26.6 µM) | > 128 µg/mL | – | –
10 | C[C@H](CCC(=O)NCc1cn(CCCCn2cc(CNC(=O)CC[C@@H](C)[C@H]3CC[C@H]4[C@@H]5[C@H](OC(=O)CN)C[C@@H]6C[C@H](OC(=O)CN)CC[C@]6(C)[C@H]5C[C@H](OC(=O)CN)[C@]34C)nn2)nn1)[C@H]1CC[C@H]2[C@@H]3[C@H](OC(=O)CN)C[C@@H]4C[C@H](OC(=O)CN)CC[C@]4(C)[C@H]3C[C@H](OC(=O)CN)[C@]12C.Cl.Cl.Cl.Cl.Cl.Cl | 128 µg/mL | 64 µg/mL | 64 µg/mL | 32 µg/mL | 211 µg/mL | 2%
